Tested on: COS-7 cells
Assay: Automated lipofection screening: GFP-luciferase reporter gene transfer (luciferase activity per protein content)
Format: cell-based, African green monkey
Conditions: pEGFPLuc plasmid, point is thousands separator; for Maximum transfection efficiency, MW (mean value), Helper lipid: DOPE: cationic/helper lipid 1:0.5 with DOPE; for Maximum transfection efficiency, MW (mean value), Helper lipid: DOPE / Maximum transfection efficiency, MW (mean value), Helper lipid: CHOL: at the LDR giving the maximum; for Maximum transfection efficiency, MW (mean value), Helper lipid: CHOL: cationic/helper lipid 1:0.5 with cholesterol; for Maximum transfection efficiency, MW (mean value), Helper lipid: without: no helper lipid, at the LDR (1:1-15:1) giving the maximum
Protocol: Screening the combinatorial lipid library for lipofection properties: Goal of this first step was to compare transfection efficiency of these structurally related cationic lipids with systematically modified hydrocarbon chain compositions for the development of suitable lipofection reagents and protocols and to study the relationship between structure and transfection efficiency of this new class of cationic lipids for gene transfer. All lipids (MS-1 to MS-50, table 1) were tested using a standard protocol: From each lipid, twenty four different lipoplexes were formed containing either no helper lipid or the helper lipids DOPE and CHOL at molar amounts (1:0.5), respectively, using eight different lipid:DNA-charge ratios (LDR) from 1:1 - 15:1, resulting in a lipofection profile for each lipid. The COS-7 cell-line was used for this lipofection study since COS-7 is easy to transfect and differences between the lipids are easy to identify.
Cell culture: SV40 transformed African green monkey kidney cell line COS-7 (ATCC CRL-1651) was routinely passaged in DMEM (GIBCO BRL, Karlsruhe, Germany), respectively, supplemented with 1% L-glutamin solution (100x), 1% Penicillin/Streptomycin solution (100x) (GIBCO BRL, Karlsruhe, Germany), and 10% FCS (BioWhittaker, Verviers, Belgium) at 37°C with 5% CO2 in humidified atmosphere. For the screening cells were maintained in 96-well culture plates (Greiner, Frickenhausen, Germany) in 100 µl DMEM, 10 % FCS, 1 % Penicillin-streptomycin in a humidified atmosphere at 37 °C/5 % CO2. 24 h prior to transfection, the cells were seeded into the microtiter plate at 10,000 cells per well to reach a confluency of 50 % at the time of transfection. Dendritic cells: Dendritic cells (DC) were derived from highly purified circulating CD14(+) monocytes: In a first step, peripheral blood mononuclear leukocytes (PBL) from healthy control persons were isolated by Ficoll-Paque (Pharmacia Biotech AB, Uppsala, Sweden) density centrifugation. The following immunomagnetic purification of the monocytes from PBL was performed using CD14 Microbeads and MiniMACS high gradient magnetic separation columns (Miltenyi Biotech, Bergisch Gladbach, Germany) according to manufacturer's instructions. Isolated monocytes (5 x 10^5/well) were cultured in RPMI supplemented with 10 % FCS, or serum-free Macrophage-SFM medium (GIBCO BRL, Karlsruhe, Germany) supplemented with human recombinant GM-CSF (0.05µg/ml) and IL-4 (0.025µg/ml) (PromoCell, Heidelberg, Germany) in 6-well plates. Aliquots of the cells were reanalyzed by FACS with anti-CD14 mAbs (Pharmingen, San Diego, CA). After 5-6 days non-adherent cells were collected and purity of DCs was determined by FACS analysis using a FACSort flow cytometer (Becton Dickinson, Mountain View, CA) and the CellQuest software for data processing as recently described (Jantscheff, P. et al., J. Immunol. Methods 163(1):91-7 (1993)).

## CCCCCCCCCCCCCCCCN(CCCCCCCCCCCCCCCC)[C@@H](CO)C(=O)NCCCCN [compound 13]
  Maximum transfection efficiency, MW (mean value), Helper lipid: DOPE: 30.635 RLU
  Maximum transfection efficiency, MW (mean value), Helper lipid: CHOL: 42.604 RLU
  Maximum transfection efficiency, MW (mean value), Helper lipid: without: 15.287 RLU

## CCCCCCCCCCCCCCCCCCN(CCCCCCCCCCCCCCCCCC)[C@@H](CO)C(=O)NCCCCN [compound 14]
  Maximum transfection efficiency, MW (mean value), Helper lipid: DOPE: 11.715 RLU
  Maximum transfection efficiency, MW (mean value), Helper lipid: CHOL: 42.270 RLU
  Maximum transfection efficiency, MW (mean value), Helper lipid: without: 1.956 RLU

## CCCCCCCC/C=C\CCCCCCCCN(CCCCCCCC/C=C\CCCCCCCC)[C@@H](CO)C(=O)NCCCCN [compound 15]
  Maximum transfection efficiency, MW (mean value), Helper lipid: DOPE: 340.414 RLU
  Maximum transfection efficiency, MW (mean value), Helper lipid: CHOL: 243.273 RLU
  Maximum transfection efficiency, MW (mean value), Helper lipid: without: 232.694 RLU

## CCCCCCCCCCCCN(CCCCCCCCCCCC)[C@@H](CO)C(=O)NCCCCCN [compound 16]
  Maximum transfection efficiency, MW (mean value), Helper lipid: DOPE: 49.071 RLU
  Maximum transfection efficiency, MW (mean value), Helper lipid: CHOL: 45.849 RLU
  Maximum transfection efficiency, MW (mean value), Helper lipid: without: 442 RLU

## CCCCCCCCCCCCCCN(CCCCCCCCCCCCCC)[C@@H](CO)C(=O)NCCCCCN [compound 17]
  Maximum transfection efficiency, MW (mean value), Helper lipid: DOPE: 453.572 RLU
  Maximum transfection efficiency, MW (mean value), Helper lipid: CHOL: 237.556 RLU
  Maximum transfection efficiency, MW (mean value), Helper lipid: without: 249.143 RLU

## CCCCCCCCCCCCCCCCN(CCCCCCCCCCCCCCCC)[C@@H](CO)C(=O)NCCCCCN [compound 18]
  Maximum transfection efficiency, MW (mean value), Helper lipid: DOPE: 26.400 RLU
  Maximum transfection efficiency, MW (mean value), Helper lipid: CHOL: 42.592 RLU
  Maximum transfection efficiency, MW (mean value), Helper lipid: without: 22.150 RLU

## CCCCCCCCCCCCCCCCCCN(CCCCCCCCCCCCCCCCCC)[C@@H](CO)C(=O)NCCCCCN [compound 19]
  Maximum transfection efficiency, MW (mean value), Helper lipid: DOPE: 11.743 RLU
  Maximum transfection efficiency, MW (mean value), Helper lipid: CHOL: 45.026 RLU
  Maximum transfection efficiency, MW (mean value), Helper lipid: without: 1.118 RLU

## CCCCCCCC/C=C\CCCCCCCCN(CCCCCCCC/C=C\CCCCCCCC)[C@@H](CO)C(=O)NCCCCCN [compound 20]
  Maximum transfection efficiency, MW (mean value), Helper lipid: DOPE: 26.482 RLU
  Maximum transfection efficiency, MW (mean value), Helper lipid: CHOL: 67.308 RLU
  Maximum transfection efficiency, MW (mean value), Helper lipid: without: 31.897 RLU

## CCCCCCCCCCCCN(CCCCCCCCCCCC)[C@@H](CO)C(=O)NCCCCCCN [compound 21]
  Maximum transfection efficiency, MW (mean value), Helper lipid: DOPE: 308.849 RLU
  Maximum transfection efficiency, MW (mean value), Helper lipid: CHOL: 190.171 RLU
  Maximum transfection efficiency, MW (mean value), Helper lipid: without: 118.131 RLU

## CCCCCCCCCCCCCCN(CCCCCCCCCCCCCC)[C@@H](CO)C(=O)NCCCCCCN [compound 22]
  Maximum transfection efficiency, MW (mean value), Helper lipid: DOPE: 164.165 RLU
  Maximum transfection efficiency, MW (mean value), Helper lipid: CHOL: 241.264 RLU
  Maximum transfection efficiency, MW (mean value), Helper lipid: without: 237.631 RLU

## CCCCCCCCCCCCCCCCN(CCCCCCCCCCCCCCCC)[C@@H](CO)C(=O)NCCCCCCN [compound 23]
  Maximum transfection efficiency, MW (mean value), Helper lipid: DOPE: 27.118 RLU
  Maximum transfection efficiency, MW (mean value), Helper lipid: CHOL: 16.398 RLU
  Maximum transfection efficiency, MW (mean value), Helper lipid: without: 14.969 RLU

## CCCCCCCCCCCCCCCCCCN(CCCCCCCCCCCCCCCCCC)[C@@H](CO)C(=O)NCCCCCCN [compound 24]
  Maximum transfection efficiency, MW (mean value), Helper lipid: DOPE: 21.009 RLU
  Maximum transfection efficiency, MW (mean value), Helper lipid: CHOL: 20.328 RLU
  Maximum transfection efficiency, MW (mean value), Helper lipid: without: 920 RLU

## CCCCCCCC/C=C\CCCCCCCCN(CCCCCCCC/C=C\CCCCCCCC)[C@@H](CO)C(=O)NCCCCCCN [compound 25]
  Maximum transfection efficiency, MW (mean value), Helper lipid: DOPE: 44.451 RLU
  Maximum transfection efficiency, MW (mean value), Helper lipid: CHOL: 12.225 RLU
  Maximum transfection efficiency, MW (mean value), Helper lipid: without: 23.710 RLU

## CCCCCCCCCCCC[N+](C)(CCCCCCCCCCCC)[C@@H](CO)C(=O)NCCN [compound 26]
  Maximum transfection efficiency, MW (mean value), Helper lipid: DOPE: 846 RLU
  Maximum transfection efficiency, MW (mean value), Helper lipid: CHOL: 16.919 RLU
  Maximum transfection efficiency, MW (mean value), Helper lipid: without: 3.196 RLU

## CCCCCCCCCCCCCC[N+](C)(CCCCCCCCCCCCCC)[C@@H](CO)C(=O)NCCN [compound 27]
  Maximum transfection efficiency, MW (mean value), Helper lipid: DOPE: 196.400 RLU
  Maximum transfection efficiency, MW (mean value), Helper lipid: CHOL: 311.891 RLU
  Maximum transfection efficiency, MW (mean value), Helper lipid: without: 21.934 RLU

## CCCCCCCCCCCCCCCC[N+](C)(CCCCCCCCCCCCCCCC)[C@@H](CO)C(=O)NCCN [compound 28]
  Maximum transfection efficiency, MW (mean value), Helper lipid: DOPE: 190.444 RLU
  Maximum transfection efficiency, MW (mean value), Helper lipid: CHOL: 461.747 RLU
  Maximum transfection efficiency, MW (mean value), Helper lipid: without: 171.272 RLU

## CCCCCCCCCCCCCCCCCC[N+](C)(CCCCCCCCCCCCCCCCCC)[C@@H](CO)C(=O)NCCN [compound 29]
  Maximum transfection efficiency, MW (mean value), Helper lipid: DOPE: 24.095 RLU
  Maximum transfection efficiency, MW (mean value), Helper lipid: CHOL: 137.404 RLU
  Maximum transfection efficiency, MW (mean value), Helper lipid: without: 43.875 RLU

## CCCCCCCC/C=C\CCCCCCCC[N+](C)(CCCCCCCC/C=C\CCCCCCCC)[C@@H](CO)C(=O)NCCN [compound 30]
  Maximum transfection efficiency, MW (mean value), Helper lipid: DOPE: 57.187 RLU
  Maximum transfection efficiency, MW (mean value), Helper lipid: CHOL: 251.177 RLU
  Maximum transfection efficiency, MW (mean value), Helper lipid: without: 99.415 RLU

## CCCCCCCCCCCCCC[N+](C)(CCCCCCCCCCCCCC)[C@@H](CO)C(=O)NCCCN [compound 32]
  Maximum transfection efficiency, MW (mean value), Helper lipid: DOPE: 225.268 RLU
  Maximum transfection efficiency, MW (mean value), Helper lipid: CHOL: 447.443 RLU
  Maximum transfection efficiency, MW (mean value), Helper lipid: without: 2.075 RLU

## CCCCCCCCCCCCCCCC[N+](C)(CCCCCCCCCCCCCCCC)[C@@H](CO)C(=O)NCCCN [compound 33]
  Maximum transfection efficiency, MW (mean value), Helper lipid: DOPE: 201.586 RLU
  Maximum transfection efficiency, MW (mean value), Helper lipid: CHOL: 372.446 RLU
  Maximum transfection efficiency, MW (mean value), Helper lipid: without: 49.603 RLU

## CCCCCCCCCCCCCCCCCC[N+](C)(CCCCCCCCCCCCCCCCCC)[C@@H](CO)C(=O)NCCCN [compound 34]
  Maximum transfection efficiency, MW (mean value), Helper lipid: DOPE: 5.085 RLU
  Maximum transfection efficiency, MW (mean value), Helper lipid: CHOL: 42.068 RLU
  Maximum transfection efficiency, MW (mean value), Helper lipid: without: 21.056 RLU

## CCCCCCCC/C=C\CCCCCCCC[N+](C)(CCCCCCCC/C=C\CCCCCCCC)[C@@H](CO)C(=O)NCCCN [compound 35]
  Maximum transfection efficiency, MW (mean value), Helper lipid: DOPE: 43.284 RLU
  Maximum transfection efficiency, MW (mean value), Helper lipid: CHOL: 56.949 RLU
  Maximum transfection efficiency, MW (mean value), Helper lipid: without: 34.736 RLU

## CCCCCCCCCCCC[N+](C)(CCCCCCCCCCCC)[C@@H](CO)C(=O)NCCCCN [compound 36]
  Maximum transfection efficiency, MW (mean value), Helper lipid: DOPE: 26.495 RLU
  Maximum transfection efficiency, MW (mean value), Helper lipid: CHOL: 3.829 RLU
  Maximum transfection efficiency, MW (mean value), Helper lipid: without: 2.064 RLU

## CCCCCCCCCCCCCC[N+](C)(CCCCCCCCCCCCCC)[C@@H](CO)C(=O)NCCCCN [compound 37]
  Maximum transfection efficiency, MW (mean value), Helper lipid: DOPE: 63.765 RLU
  Maximum transfection efficiency, MW (mean value), Helper lipid: CHOL: 148.560 RLU
  Maximum transfection efficiency, MW (mean value), Helper lipid: without: 1.972 RLU

## CCCCCCCCCCCCCCCC[N+](C)(CCCCCCCCCCCCCCCC)[C@@H](CO)C(=O)NCCCCN [compound 38]
  Maximum transfection efficiency, MW (mean value), Helper lipid: DOPE: 71.641 RLU
  Maximum transfection efficiency, MW (mean value), Helper lipid: CHOL: 156.698 RLU
  Maximum transfection efficiency, MW (mean value), Helper lipid: without: 30.747 RLU

## CCCCCCCC/C=C\CCCCCCCC[N+](C)(CCCCCCCC/C=C\CCCCCCCC)[C@@H](CO)C(=O)NCCCCN [compound 40]
  Maximum transfection efficiency, MW (mean value), Helper lipid: DOPE: 48.692 RLU
  Maximum transfection efficiency, MW (mean value), Helper lipid: CHOL: 119.285 RLU
  Maximum transfection efficiency, MW (mean value), Helper lipid: without: 12.263 RLU

## CCCCCCCCCCCC[N+](C)(CCCCCCCCCCCC)[C@@H](CO)C(=O)NCCCCCN [compound 41]
  Maximum transfection efficiency, MW (mean value), Helper lipid: DOPE: 1.535 RLU
  Maximum transfection efficiency, MW (mean value), Helper lipid: CHOL: 923 RLU
  Maximum transfection efficiency, MW (mean value), Helper lipid: without: 946 RLU

## CCCCCCCCCCCCCC[N+](C)(CCCCCCCCCCCCCC)[C@@H](CO)C(=O)NCCCCCN [compound 42]
  Maximum transfection efficiency, MW (mean value), Helper lipid: DOPE: 72.349 RLU
  Maximum transfection efficiency, MW (mean value), Helper lipid: CHOL: 181.719 RLU
  Maximum transfection efficiency, MW (mean value), Helper lipid: without: 832 RLU

Source: patent EP1457483A1, “Cationic lipids with serine backbone” (Ruhr-Universität Bochum, priority 2003, dated 2004)
